Measurements published in patent US20110306621A1, “ACYLGUANIDINE DERIVATIVES” (priority 2009, published 2011).

Molecular target: T1, human 5-HT5A receptor (Homo sapiens, UniProt P47898)
T1 construct: expressed in transfected cells; membranes used
Test: Test on a human 5-HT5A receptor binding inhibition ([3H]5-CT)
Settings: membrane from HEK293 cells for forced expression of human 5-HT5A receptor; Ki calculated from IC50 and Kd of [3H]5-CT (4.95 nM)
Method: The ORF (open reading frame; protein coding region) of a human 5-HT5A receptor (Genbank AF498985) was cloned from a human hippocampus cDNA library, and then inserted into a pCR2.1 vector (Invitrogen), and Escherichia coli containing the plasmid was cultured in a large amount. Next, the full-length cDNA sequence of the human 5-HT5A receptor was analyzed, and recombined into a pcDNA3.1 vector (Invitrogen) as an expression vector and cultured in a large amount. HEK293 established cells (ATCC) derived from the human fetal kidney were seeded, the expression plasmid (1 μg) obtained above were added thereto with LIPOFECTAMINE 2000 (Invitrogen; 2 μl), the gene was transfected into HEK293 cells, and the expression cells were screened with a drug-resistant marker, Geneticin (G418 sulfate 500 μg/ml; Kanto Chemical Co., Inc.). Thus prepared recombinant cells which expressed the gene were cultured in a medium containing D-MEM (Dulbecco's modified eagle medium, Sigma), 10% FCS (Fetal calf serum: fetal bovine serum), 1% Pc./Sm (Penicillin/Streptomycin, Invitrogen), and 500 μg/ml G418 for 3 days. These experimental operations followed a manual for gene operation experiment and an instruction appended in a reagent, and the like, such as a known method (Sambrook, J. et al, Molecular Cloning-A Laboratory Manual”, Cold Spring Harabor laboratory, NY, 1989).
HEK293 cells for forced expressions of a human 5-HT5A receptor were cultured in a F500 plate, and scraped with a scraper. After centrifugation, the precipitate was collected, and an incubation buffer (50 mM Tris (HCl) (pH 7.4), 10 mM MgSO4, and 0.5 mM EDTA (ethylenediamine tetraacetic acid)) was added thereto. After homogenization, it was further centrifuged, and the incubation buffer was added to the precipitate, followed by thoroughly suspending. The operation was repeated, and protein concentration was measured, thereby completing preparation of the membrane.
A solution of the compound to be tested and 100 μM 5-CT (5-carboxamidetriptamine) in DMSO was added to a 96-well plate at 2 μl/well, suspended in an incubation buffer, and a membrane from HEK293 cells for forced expressions of a human 5-HT5A receptor prepared at 200 μg/ml was added at 100 μl/well. After incubation at room temperature for 15 minutes, a [^3H]5-CT solution (2 nM [^3H]5-CT, incubation buffer) was added thereto at 100 μl/well.
Separately, 100 μl of the solution was distributed into a liquid scintillation vial, and 2 ml of Aquasol II (registered trademark) was added thereto, followed by stirring. Then, radioactivity was measured by a liquid scintillation counter. It was incubated at 37° C. for 60 minutes. The reaction mixture was sucked into 96-well GF/C filter plate that had been pre-treated with 0.2% polyethyleneimine, and washed six times with an ice-cooled, 50 mM Tris (pH 7.5) buffer. The GF/C filter plate was dried.
Microscint TMPS (registered trademark) was added thereto at 40 μl/well. Radioactivity remaining on the GF/C filter plate was measured by a top counter.
The [^3H]5-CT binding inhibiting activity by the compound to be tested in each experiment was determined as an IC50 value with a radioactivity upon addition of DMSO alone being 0% inhibition, and a radioactivity upon addition of 1 μM 5-CT being 100% inhibition. Separately, Ki values were calculated from the Kd value of the [^3H]5-CT determined from Scatchard analysis, by the following equation.
Ki=IC50 (1+Concentraion of ligand added/Kd (4.95 nM))

T1 sequence (P47898 whole entry): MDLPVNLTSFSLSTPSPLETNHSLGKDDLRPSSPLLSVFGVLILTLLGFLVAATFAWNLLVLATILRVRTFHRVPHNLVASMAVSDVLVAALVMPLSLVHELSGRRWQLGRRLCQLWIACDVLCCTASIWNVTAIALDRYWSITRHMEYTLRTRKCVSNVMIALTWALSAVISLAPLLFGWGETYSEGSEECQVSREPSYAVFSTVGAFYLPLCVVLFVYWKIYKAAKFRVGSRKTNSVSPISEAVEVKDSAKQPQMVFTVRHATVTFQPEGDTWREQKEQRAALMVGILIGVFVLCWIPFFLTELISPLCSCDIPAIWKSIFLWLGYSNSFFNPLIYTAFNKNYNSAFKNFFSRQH

Ki [nM] | Structure (SMILES)
0.3 to 3 | N#Cc1ccc(-c2cccc3ccc(C(=O)N=C(N)N)cc23)cc1 [Example 2]
0.3 to 3 | COc1cc(C#N)ccc1-c1cccc2ccc(C(=O)N=C(N)N)cc12 [Example 3]
0.3 to 3 | COc1cc(F)ccc1-c1cccc2ccc(C(=O)N=C(N)N)cc12 [Example 4]
0.3 to 3 | COc1ccc(-c2cccc3ccc(C(=O)N=C(N)N)cc23)c(OC)c1 [Example 5]
0.3 to 3 | NC(N)=NC(=O)c1ccc2cccc(-c3ccccc3F)c2c1 [Example 6]
0.3 to 3 | NC(N)=NC(=O)c1ccc2cccc(-c3ccccc3Cl)c2c1 [Example 7]
3 to 30 | COc1ncccc1-c1cccc2ccc(C(=O)N=C(N)N)cc12 [Example 8]
0.3 to 3 | N#Cc1ccc(-c2c(F)ccc3ccc(C(=O)N=C(N)N)cc23)cc1 [Example 9]
0.3 to 3 | Cc1ccc2ccc(C(=O)N=C(N)N)cc2c1-c1ccc(C#N)cc1 [Example 10]
0.3 to 3 | Cc1ccc2ccc(C(=O)N=C(N)N)cc2c1-c1ccc(F)cc1 [Example 11]
0.3 to 3 | COc1ccc(-c2c(C)ccc3ccc(C(=O)N=C(N)N)cc23)cc1 [Example 12]
0.3 to 3 | NC(N)=NC(=O)c1ccc2cccc(-c3ccccc3O)c2c1 [Example 13]
0.3 to 3 | NC(N)=NC(=O)c1ccc2cccc(-c3c(F)cc(F)cc3F)c2c1 [Example 14]
3 to 30 | COc1ccc(C#N)cc1-c1cccc2ccc(C(=O)N=C(N)N)cc12 [Example 15]
3 to 30 | N#Cc1cc(F)ccc1-c1cccc2ccc(C(=O)N=C(N)N)cc12 [Example 16]
3 to 30 | Cc1nc(C)c(-c2cccc3ccc(C(=O)N=C(N)N)cc23)s1 [Example 17]
0.3 to 3 | COc1cccc(F)c1-c1cccc2ccc(C(=O)N=C(N)N)cc12 [Example 18]
3 to 30 | NC(N)=NC(=O)c1ccc2cccc(-c3cccnc3Cl)c2c1 [Example 19]
3 to 30 | N#Cc1ccccc1-c1cccc2ccc(C(=O)N=C(N)N)cc12 [Example 20]
3 to 30 | NC(N)=NC(=O)c1ccc2cccc(-c3cccnc3)c2c1 [Example 21]
3 to 30 | NC(N)=NC(=O)c1ccc2cccc(C3=CCOCC3)c2c1 [Example 22]
3 to 30 | NC(N)=NC(=O)c1ccc2cccc(-c3ccc(F)nc3)c2c1 [Example 23]
3 to 30 | Cc1ccc(-c2cccc3ccc(C(=O)N=C(N)N)cc23)cn1 [Example 24]
0.3 to 3 | NC(N)=NC(=O)c1ccc2cccc(-c3ccncc3F)c2c1 [Example 25]
0.3 to 3 | N#Cc1cccc(F)c1-c1cccc2ccc(C(=O)N=C(N)N)cc12 [Example 26]

Ki [nM] | Structure (SMILES)
3 to 30 | COc1c(F)cccc1-c1cccc2ccc(C(=O)N=C(N)N)cc12 [Example 27]
3 to 30 | NC(N)=NC(=O)c1ccc2cccc(-c3cccc4c3OCCO4)c2c1 [Example 28]
3 to 30 | N#Cc1c(F)cccc1-c1cccc2ccc(C(=O)N=C(N)N)cc12 [Example 29]
3 to 30 | COc1cccc(C#N)c1-c1cccc2ccc(C(=O)N=C(N)N)cc12 [Example 30]
0.3 to 3 | NC(N)=NC(=O)c1ccc2cccc(-c3c(F)cncc3F)c2c1 [Example 31]
0.3 to 3 | COc1cccc(Cl)c1-c1cccc2ccc(C(=O)N=C(N)N)cc12 [Example 32]
3 to 30 | N#Cc1cc(Cl)ccc1-c1cccc2ccc(C(=O)N=C(N)N)cc12 [Example 33]
3 to 30 | COc1ccc(F)cc1-c1cccc2ccc(C(=O)N=C(N)N)cc12 [Example 34]
0.3 to 3 | NC(N)=NC(=O)c1ccc2cccc(-c3ccc(F)cc3F)c2c1 [Example 35]
0.3 to 3 | NC(N)=NC(=O)c1ccc2cccc(-c3c(F)cccc3F)c2c1 [Example 36]
3 to 30 | NC(N)=NC(=O)c1ccc2cccc(-c3ccc(Cl)nc3Cl)c2c1 [Example 37]
3 to 30 | NC(N)=NC(=O)c1ccc2cccc(-c3cc(Cl)ncc3Cl)c2c1 [Example 38]
30 to 300 | N#Cc1ccc(F)cc1-c1cccc2ccc(C(=O)N=C(N)N)cc12 [Example 39]
3 to 30 | COc1cccc(-c2cccc3ccc(C(=O)N=C(N)N)cc23)c1F [Example 40]
3 to 30 | COc1ccc(F)c(-c2cccc3ccc(C(=O)N=C(N)N)cc23)c1 [Example 41]
0.3 to 3 | COc1cc(F)cc(F)c1-c1cccc2ccc(C(=O)N=C(N)N)cc12 [Example 42]
0.3 to 3 | NC(N)=NC(=O)c1ccc2cccc(-c3c(F)cc(Cl)cc3F)c2c1 [Example 43]
0.3 to 3 | NC(N)=NC(=O)c1ccc2cccc(-c3ccncc3Cl)c2c1 [Example 44]
0.3 to 3 | NC(N)=NC(=O)c1ccc2cccc(-c3c(Cl)cncc3Cl)c2c1 [Example 45]
0.3 to 3 | NC(N)=NC(=O)c1ccc2cccc(-c3cccs3)c2c1 [Example 46]
0.3 to 3 | NC(N)=NC(=O)c1ccc2cccc(-c3ccsc3)c2c1 [Example 47]
0.3 to 3 | Cc1ccsc1-c1cccc2ccc(C(=O)N=C(N)N)cc12 [Example 48]
0.3 to 3 | NC(N)=NC(=O)c1ccc2cccc(-c3sccc3Cl)c2c1 [Example 49]
0.3 to 3 | N#Cc1ccc(-c2cccc3ccc(C(=O)N=C(N)N)cc23)s1 [Example 50]
3 to 30 | N#Cc1sccc1-c1cccc2ccc(C(=O)N=C(N)N)cc12 [Example 51]

Ki [nM] | Structure (SMILES)
3 to 30 | NC(N)=NC(=O)c1ccc2cccc(-c3ccnc(F)c3)c2c1 [Example 52]
3 to 30 | NC(N)=NC(=O)c1ccc2cccc(-c3ccnc(Cl)c3)c2c1 [Example 53]
3 to 30 | NC(N)=NC(=O)c1ccc2cccc(-c3ccc(Cl)nc3)c2c1 [Example 54]
3 to 30 | NC(N)=NC(=O)c1ccc2cccc(-c3cncc(F)c3)c2c1 [Example 55]
3 to 30 | N#Cc1ncccc1-c1cccc2ccc(C(=O)N=C(N)N)cc12 [Example 56]
0.3 to 3 | COc1cc(Cl)ccc1-c1cccc2ccc(C(=O)N=C(N)N)cc12 [Example 57]
0.3 to 3 | NC(N)=NC(=O)c1ccc2cccc(-c3c(Cl)cccc3Cl)c2c1 [Example 58]
0.3 to 3 | NC(N)=NC(=O)c1ccc2cccc(-c3ccc(Cl)cc3F)c2c1 [Example 59]
0.3 to 3 | NC(N)=NC(=O)c1ccc2cccc(-c3ccc(F)cc3Cl)c2c1 [Example 60]
0.3 to 3 | NC(N)=NC(=O)c1ccc2cccc(-c3ccc(Cl)cc3Cl)c2c1 [Example 61]
0.3 to 3 | NC(N)=NC(=O)c1ccc2cccc(-c3cccnc3F)c2c1 [Example 62]
3 to 30 | COc1cc(-c2cccc3ccc(C(=O)N=C(N)N)cc23)c(Cl)cn1 [Example 63]
3 to 30 | CCOc1nccc(-c2cccc3ccc(C(=O)N=C(N)N)cc23)c1C#N [Example 64]
3 to 30 | NC(N)=NC(=O)c1ccc2cccc(-c3cc(F)ncc3Cl)c2c1 [Example 65]
0.3 to 3 | CCOc1ncc(Cl)c(-c2cccc3ccc(C(=O)N=C(N)N)cc23)c1F [Example 66]
0.3 to 3 | CCOc1ncc(Cl)c(-c2cccc3ccc(C(=O)N=C(N)N)cc23)c1Cl [Example 67]
0.3 to 3 | NC(N)=NC(=O)c1ccc2cccc(-c3cc(F)ccc3F)c2c1 [Example 68]
0.3 to 3 | NC(N)=NC(=O)c1ccc2cccc(-c3cccc(Cl)c3F)c2c1 [Example 69]
0.3 to 3 | NC(N)=NC(=O)c1ccc2cccc(-c3cc(Cl)ccc3F)c2c1 [Example 70]
0.3 to 3 | NC(N)=NC(=O)c1ccc2cccc(-c3cccc(F)c3F)c2c1 [Example 71]
3 to 30 | COc1ccc(-c2cccc3ccc(C(=O)N=C(N)N)cc23)c(C#N)c1 [Example 72]
0.3 to 3 | NC(N)=NC(=O)c1ccc2cccc(-c3cnccc3Cl)c2c1 [Example 73]
3 to 30 | NC(N)=NC(=O)c1ccc2cccc(-c3cncc(Cl)c3)c2c1 [Example 74]
0.3 to 3 | NC(N)=NC(=O)c1ccc2cccc(-c3cccc(Cl)c3Cl)c2c1 [Example 75]
